Assay [1] concerns hM1 receptor. Nature of the assay: Millipore GPCR Profiler functional screen, hM1. As to conditions: two-addition protocol, BQCA 12.5 μM in first addition. It counts as cell-based, human.
For assay [2], the system named is hM4 receptor. Nature of the assay: Millipore GPCR Profiler functional screen, hM4. It counts as cell-based, human. As to conditions: two-addition protocol, BQCA 12.5 μM in first addition.
Assay [3] deals with 15 other closely related GPCRs. In words: Millipore GPCR Profiler functional screen, GPCR panel. Format: cell-based.
The test system of assay [4] is rat mPFC layer V pyramidal cells. Nature of the assay: Inward. It counts as cell-based.
Assay [5] has the same test system. In words: Spontaneous EPSCs in acute rat brain slices. It counts as cell-based.
The subject of assay [6] is mPFC layer V neurons, wildtype (WT) mice. In words: Spontaneous EPSCs in slices from wild-type mice. Format: cell-based, mouse.
In assay [7] the test system is rat mPFC layer V pyramidal cells. It counts as cell-based. As to conditions: 10 μM; 1 μM TTX.
Where [8] appears, read: 10 μM applied alone, −70 mV, 1 μM TTX.

Three compounds from PMC2811323 (The Journal of neuroscience : the official journal of the …, 2009) can be followed below.

Regarding `COc1ccc(Cn2cc(C(=O)[O-])c(=O)c3ccccc32)cc1.[Na+]` [BQCA, Sodium 1-(4-methoxybenzyl)-4-oxo-1,4-dihydroquinoline-3-carboxylate], the “Potentiation of the functional response” value in assay [1] was “robust potentiation”. Also, the “Activity in the functional screen” value in assay [2] is on record as “no activity”. Also, the “Agonist activity when applied alone in the first addition” value in assay [3] (12.5 μM, any receptor tested) is “no agonist activity”. In addition, the “Effect (PAM or antagonist activity) at the other GPCRs tested” value in assay [3] (two-addition protocol, BQCA 12.5 μM in first addition) was “no effect”.

Turning to `C[N+](C)(C)CCOC(N)=O` [CCh, carbachol], the “Inward current (change in holding current)” value is 16.55 ± 1.93 pA in assay [4] (setting [8]) and 53.14 ± 5.92 pA in assay [4] (100 μM applied alone, −70 mV, 1 μM TTX). In addition, the sEPSC amplitude in assay [5] (10 μM applied alone) was 97.5 ± 4.4 % control; in assay [5] (30 μM applied alone), 108.3 ± 3.9 % control; in assay [5] (100 μM applied alone) it was 154.3 ± 46.2 % control; in assay [6] (3 μM applied alone) it was 102.6 ± 11.7 % of control; in assay [6] (30 μM applied alone), 143.1 ± 22.0%. Moreover, the sEPSC frequency was 90.1 ± 12.4 % control in assay [5] (10 μM applied alone); 455.0 ± 101.9 % control in assay [5] (30 μM applied alone); 887.6 ± 268.5 % control in assay [5] (100 μM applied alone); 83.2 ± 47.1% in assay [6] (3 μM applied alone); 398.3 ± 56.2% in assay [6] (30 μM applied alone). In addition, the mEPSC amplitude in assay [7] was 88.6 ± 3.8 % control.

With `O=C(CCNS(=O)(=O)c1cccc2nsnc12)N1CCN(c2ccncc2)CC1` [VU0255035], the “Inward current (change in holding current)” value in assay [4] (setting [8]) is “no effect”; in assay [4] (100 μM CCh in the presence of 10 μM VU0255035), 11.78 ± 1.90 pA. The sEPSC amplitude amounted to 87.1 ± 3.5 % control in assay [5] (5 μM antagonist with 30 μM CCh) and 92.9 ± 3.4 % control in assay [5] (5 μM applied alone). In addition, the sEPSC frequency in assay [5] (5 μM antagonist with 30 μM CCh) is reported as 62.5 ± 10.1 % control; in assay [5] (5 μM applied alone), 114.1 ± 25.8 % control.
